One assay deals with CD69 on CD8+ T cells. As to the kind of experiment: CD69 expression on CD8+ T cells of antigen-stimulated OT-1 mice (FACS). In kind it is in vivo, mouse. On the procedure: (§1) OT-1 mice are obtained as described in Hogquist et al., 1994, Cell 76(1)17-27. The animals are maintained in Microvent positive air supply cages (22±1° C., 55±5% relative humidity, 50-70 changes of fresh air/hour and 12 hours day and night cycle) with sawdust bedding. Standard laboratory mouse chow (SNIFF, Soest, Germany) and drinking water is given ad libitum. Groups of two to four, 8-10 weeks old, male or female OT-1 mice weighing between 20-25 g are used for the experiments described. The animals are grouped (4 per group) in type II Macrolon cages one day before the experiment.
Doses of 3, 0.3 and 0.1 mg/kg b.w. are administered orally by gavage 2 hours before antigen challenge. […]
(§2) Single cell suspensions of spleen or blood containing approximately 1×10^6 cells in 100 μl of FACS buffer are used for staining. […] Lymphocytes are gated in the FSC/SSC dot blot according to size and granularity and further analyzed for expression of CD8, TCR Vβ5 expression and activation markers. Data are presented as original dot blots or are calculated from dot blots as percentage of cells positively stained for TCR or activation markers within the CD8^+ population.
Data calculated from FACS analysis or serum cytokine determination are given as individual values for each animal. Data are analysed for normal distribution and then the ANOVA test for multiple comparison is applied using SigmaStat software. […]

In another assay the test system is CD8+ T cells. As to the kind of experiment: Frequency of CD8+ T cells in blood and spleen of OT-1 mice (FACS). In kind it is in vivo, mouse. How it is done: as §1
Doses of 3, 0.3 and 0.1 mg/kg b.w. are administered orally by gavage 2 hours before antigen challenge. The compound is diluted with solvent (Neoral Placebo) and given in a volume of 0.2 ml. Animals in the control group receive the solvent only. Ovalbumin-derived peptide (OVA257-264, […], >80% purity, piChemie R&D, Graz, Austria) or whole OVA (Sigma) are used as antigens. Both are diluted in PBS and administerd i.p. in a final volume of 0.2 ml. At various time points after OVA257-264 peptide injection about 200 μl blood is withdrawn from the retro-orbital plexus under ether anesthesia. In order to avoid coagulation, blood is collected in EDTA-containing buffer. Mice are killed by cervical dislocation and the spleen is excised. Single cell suspension are prepared in PBS by gently pressing the spleen through a 100 μm cell strainer. Finally, blood and spleen cells are washed with FACS buffer (PBS, 1 g/l EDTA, 1 g/l NaN3, 10% FCS; pH 7.1) and taken up in the same buffer for FACS analysis.
as §2

In the next assay the test system is CD25 on CD8+ T cells. Nature of the assay: CD25 expression on CD8+ T cells of peptide-stimulated OT-1 mice (FACS). Format: in vivo, mouse. The settings on record: 100 μg OVA257-264, after 7 hours. On the procedure: The animals are maintained in Microvent positive air supply cages (22±1° C., 55±5% relative humidity, 50-70 changes of fresh air/hour and 12 hours day and night cycle) with sawdust bedding.

The test system of a further assay is IL-2. Nature of the assay: Serum IL-2 in OVA257-264 stimulated OT-1 mice (sandwich ELISA). In kind it is in vivo, mouse. On the procedure: as §1
(§3) Cells are stimulated as described above and supernatant is harvested after 48 hours. The quantity of cytokines released by T cells into the culture medium after antigen stimulation is assayed by conventional sandwich ELISA. […] Specifically bound cytokines are quantified using biotinylated secondary antibodies JES6-5H4 (anti-IL-2), BVD6-24G2 (anti-IL-4), TRFK4 (anti-IL-5), SXC-1 (anti-IL-10) and XMG1.2 (anti-IFN-γ) followed by extravidin peroxidase and TMB substrate (both from Sigma). Absorption is measured at 450 and 690 nm on a Spectramax 340PC reader (Molecular Devices, Sunnyvale, Calif.). All cytokines are quantified with standard curves obtained with known amounts of recombinant mouse cytokines using SoftMax 3 software. […]
For orientation: An ELISA detects its analyte on a solid surface through an enzyme-linked reagent.

Assay [1] relates to IFN-γ. As to the kind of experiment: Serum IFN-γ in OVA257-264 stimulated OT-1 mice (sandwich ELISA). Format: in vivo, mouse. On the procedure:
as §1, §3

The subject of assay [2] is IFN-γ. As to the kind of experiment: Serum IFN-γ in OVA/OVA323-339 stimulated DO11.10 mice (ELISA). The settings on record: for IFN-γ level in pg/ml serum after day 0: 3 hours after first i.p. injection; for IFN-γ level in pg/ml serum after day 14: 3 hours after second i.p. injection. Format: in vivo, mouse. On the procedure:
Groups of six, 8-10 weeks old, male or female DO11.10 mice weighing between 20-22 g are obtained as described in Murphy K. M. et al. 1990, Science 250:1720-1722. The animals are maintained in Microvent positive air supply cages (22±1° C., 55±5% relative humidity, 50-70 changes of fresh air/hour and 12 hours day and night cycle) with sawdust bedding. Standard laboratory mouse chow (SNIFF, Soest, Germany) and drinking water is given ad libidum. The animals are used for the study after an adaptation period of 10-14 days and grouped (6 per group) in type II Macrolon cages one day before the experiment.
Groups of six DO11.10 mice are i.p. injected with 10 μg of ovalbumin (OVA, Sigma, St. Louis, USA) absorbed to 2 mg of Al(OH)3 (Alu Gel S; 2% Al(OH)3, Serva, Heidelberg, FRG) and diluted with saline to a volume of 0.2 ml or various amounts (1, 3, 10, 30, or 90 μg per mouse) of alum-precipitated OVA323-339 peptide (98% purity, piChem R&D, Graz Austria) in 0.2 ml on days 0 and 14. Before and at different time points on days 0 and 14 after the OVA or OVA323-339 peptide administration about 200 μl of blood are collected by puncture of the retro-orbital plexus under ether anesthesia.
The sera are collected and stored frozen at −20° C. until analyzed. […]
Murine IL-2, IFN-γ and IL-4 are analyzed by immunoassays (Quantikine R&D Systems, Minneapolis, Minn., USA). Results are expressed as pg per ml serum expressed as mean±SEM pg of the cytokine indicated per ml serum. Test and control groups are evaluated by Dunn test by Kruskall-Wallis One Way Anova using the SigmaStat® program. […]
Mice of the control group are injected with alum. Blood is collected before and at 2, 4, and 6 hours after the first peptide injection. INF-γ is determined in the sera by an ELISA. Results are expressed as mean pg per ml serum±SEM. […]

Assay [3] relates to Splenocytes of OT-1 mice. As to the kind of experiment: T cell proliferation assay, OT-1 splenocytes. To be noted: high amounts of OVA protein. In kind it is cell-based, mouse. How it is done:
Splenocytes (4×10^5 cells/well) of OT-1 mice are stimulated in 200 μl final volume in 96-well flat bottomed plates with titrated amounts of OVA or OVA257-264 peptide at 37°. As medium RPMI 1640 supplemented with 10% FCS, 2.0 g/l NaHCO3, 2 mM L-glutamin, 100 IU/ml penicillin, 100 μg/ml streptomycin and 5×10^−5 M β-mercaptoethanol (Sigma, Vienna, Austria) is used. After 48 hours, cells are pulsed with 0.5 μCi ^3H-thymidine for 8 hours and the incorporated radioactivity is measured on a liquid scintillation β-counter (Trilux, 1450 Microbeta, Wallac, Turku, Finland).

Assay [4] relates to Splenocytes of OT-1 mice. Nature of the assay: Cytokine production assay, OT-1 splenocytes. In kind it is cell-based, mouse. The settings on record: high amounts of OVA protein. On the procedure: Cells are stimulated as described above and supernatant is harvested after 48 hours. The quantity of cytokines released by T cells into the culture medium after antigen stimulation is assayed by conventional sandwich ELISA. Microtiter plates (Nunc-Immunoplate™) are coated with the cytokine-specific capture antibodies JES6-1A12 (anti-IL-2), 11B11 (anti-IL-4), TRFK5 (anti-IL-5), JES5-2A5 (anti-IL-10) or R4-6A2 (anti-IFN-γ) at 4° overnight. Supernatants are incubated on the coated plates for 2 hours. Specifically bound cytokines are quantified using biotinylated secondary antibodies JES6-5H4 (anti-IL-2), BVD6-24G2 (anti-IL-4), TRFK4 (anti-IL-5), SXC-1 (anti-IL-10) and XMG1.2 (anti-IFN-γ) followed by extravidin peroxidase and TMB substrate (both from Sigma). Absorption is measured at 450 and 690 nm on a Spectramax 340PC reader (Molecular Devices, Sunnyvale, Calif.). All cytokines are quantified with standard curves obtained with known amounts of recombinant mouse cytokines using SoftMax 3 software. All mAbs and recombinant mouse cytokine standards are purchased from BD PharMingen, Heidelberg, Germany.

Setting [5] is: peptide-induced activation in OT-1 mice.

Some results are limits rather than exact numbers.

Here are results for 4 molecules from patent publication US20060095978A1, “Screening assay” (priority 2002, published 2006).

Regarding “OVA257-264: peptide derived from chicken ovalbumin containing amino acids from position 257 to 264”, the “maximal up-regulation of CD69” value in the assay on CD69 on CD8+ T cells (100 μg OVA257-264, after 3 hours) is recorded as “ca. 155 fold increase”. In addition, the “change of CD8+ T cells in the spleen” value in the assay with CD8+ T cells (100 μg OVA257-264 i.p.) was “no significant decrease”. Moreover, the “frequency of CD8+ expressing cells among the lymphocyte population in the blood” value with CD8+ T cells (100 μg OVA257-264 i.p., within 3 hours, from around 30%) was “less than 2.5%”. Besides, the “maximal up-regulation of CD25” value with CD25 on CD8+ T cells was “ca. 40 fold increase”. The “time of early peak of serum IL-2” value in the assay with IL-2 (setting [5]) is 4 h. In addition, the “minimal amount required to induce significant serum quantities of IL-2” value with IL-2 (per animal, i.p., 4 hours) worked out at 30 µg. In addition, the “time of early peak of serum IFN-γ” value in the assay with IFN-γ [1] (setting [5]) amounted to 4 h. The “minimal amount required to induce significant serum quantities of IFN-γ” value with IFN-γ [1] (per animal, i.p., 4 hours) stood at 30 µg.
“p/p: 10 μg OVA323-339 peptide/10 μg OVA323-339 peptide i.p. on days 0 and 14 (KISQAVHAAHAEINEAG; UniProt P01012 323-339, looked up, fragment)”: in the assay with IFN-γ [2], the “IFN-γ level in pg/ml serum after day 0” value came to 483.215 ± 134.641 pg/mL and the “IFN-γ level in pg/ml serum after day 14” value is 554.136 ± 110.652 pg/mL.

B1: OVA: chicken ovalbumin (protein, UniProt P01012 2-386, looked up)
Ovalbumin: GSIGAASMEFCFDVFKELKVHHANENIFYCPIAIMSALAMVYLGAKDSTRTQINKVVRFDKLPGFGDSIEAQCGTSVNVHSSLRDILNQITKPNDVYSFSLASRLYAEERYPILPEYLQCVKELYRGGLEPINFQTAADQARELINSWVESQTNGIIRNVLQPSSVDSQTAMVLVNAIVFKGLWEKAFKDEDTQAMPFRVTEQESKPVQMMYQIGLFRVASMASEKMKILELPFASGTMSMLVLLPDEVSGLEQLESIINFEKLTEWTSSNVMEERKIKVYLPRMKMEEKYNLTSVLMAMGITDVFSSSANLSGISSAESLKISQAVHAAHAEINEAGREVVGSAEAGVDAASVSEEFRADHPFLFCIKHIATNAVLFFGRCVSP
For the molecule B1, the “increase of CD69 expression in the spleen” value with CD69 on CD8+ T cells (1 mg OVA i.p., late (7-24 hours)) is recorded as at most 2.5 fold. For the same molecule, the “frequency of CD8+ T cells in both spleen and blood” value in the assay with CD8+ T cells (1 mg OVA i.p., over 48 hours) is “declines marginally”. Moreover, the “serum INF-γ levels after challenge with OVA-protein” value in the assay with IFN-γ [2] (given amount (10 μg) of OVA-protein) is given as “under the detection limit”. Moreover, in the assay on IFN-γ [2] (primary OVA, second OVA exposure 2 weeks later), the “INF-γ levels after second OVA exposure versus before” value is “fail to increase”. Moreover, in the assay with IFN-γ [2] (primary sensitization with 10 μg of OVA), the “serum INF-γ levels versus alum alone” value is recorded as “does not change”. Also, the “proliferation of OT-1 splenocytes in vitro” value in the assay on Splenocytes of OT-1 mice [3] is “induce proliferation”. Also, in the assay on Splenocytes of OT-1 mice [4], the “cytokine release of OT-1 splenocytes in vitro” value is “cytokine release”.

B2: o/o: 10 μg OVA/10 μg OVA i.p. on days 0 and 14 (protein, UniProt P01012 2-386, looked up)
Ovalbumin: GSIGAASMEFCFDVFKELKVHHANENIFYCPIAIMSALAMVYLGAKDSTRTQINKVVRFDKLPGFGDSIEAQCGTSVNVHSSLRDILNQITKPNDVYSFSLASRLYAEERYPILPEYLQCVKELYRGGLEPINFQTAADQARELINSWVESQTNGIIRNVLQPSSVDSQTAMVLVNAIVFKGLWEKAFKDEDTQAMPFRVTEQESKPVQMMYQIGLFRVASMASEKMKILELPFASGTMSMLVLLPDEVSGLEQLESIINFEKLTEWTSSNVMEERKIKVYLPRMKMEEKYNLTSVLMAMGITDVFSSSANLSGISSAESLKISQAVHAAHAEINEAGREVVGSAEAGVDAASVSEEFRADHPFLFCIKHIATNAVLFFGRCVSP
Consider B2, for which, in the assay on IFN-γ [2], the “IFN-γ level in pg/ml serum after day 0” value was 3.788 ± 1.495 pg/mL and the “IFN-γ level in pg/ml serum after day 14” value was 6.796 ± 6.189 pg/mL.
